Source: US11007270B2, “Polymer-semaxanib moiety conjugates” (Nektar Therapeutics, priority 2010, dated 2021)

Tests used:
[1] = molecular target: c-Kit (Homo sapiens, UniProt P10721); assay: c-Kit tyrosine kinase inhibition, Caliper screening (fluorescent substrate phosphorylation, electrophoretic separation); assay type: biochemical; conditions: for IC50: averages of replicate wells; for c-Kit Fold: fold of IC50 relative to sunitinib
[2] = molecular target: RET (Homo sapiens, UniProt P07949); assay: RET kinase inhibition, Caliper screening (fluorescent substrate phosphorylation, electrophoretic separation); conditions: for RET Fold: fold of IC50 relative to sunitinib
Chain of RET (P07949 29-1114, species assumed): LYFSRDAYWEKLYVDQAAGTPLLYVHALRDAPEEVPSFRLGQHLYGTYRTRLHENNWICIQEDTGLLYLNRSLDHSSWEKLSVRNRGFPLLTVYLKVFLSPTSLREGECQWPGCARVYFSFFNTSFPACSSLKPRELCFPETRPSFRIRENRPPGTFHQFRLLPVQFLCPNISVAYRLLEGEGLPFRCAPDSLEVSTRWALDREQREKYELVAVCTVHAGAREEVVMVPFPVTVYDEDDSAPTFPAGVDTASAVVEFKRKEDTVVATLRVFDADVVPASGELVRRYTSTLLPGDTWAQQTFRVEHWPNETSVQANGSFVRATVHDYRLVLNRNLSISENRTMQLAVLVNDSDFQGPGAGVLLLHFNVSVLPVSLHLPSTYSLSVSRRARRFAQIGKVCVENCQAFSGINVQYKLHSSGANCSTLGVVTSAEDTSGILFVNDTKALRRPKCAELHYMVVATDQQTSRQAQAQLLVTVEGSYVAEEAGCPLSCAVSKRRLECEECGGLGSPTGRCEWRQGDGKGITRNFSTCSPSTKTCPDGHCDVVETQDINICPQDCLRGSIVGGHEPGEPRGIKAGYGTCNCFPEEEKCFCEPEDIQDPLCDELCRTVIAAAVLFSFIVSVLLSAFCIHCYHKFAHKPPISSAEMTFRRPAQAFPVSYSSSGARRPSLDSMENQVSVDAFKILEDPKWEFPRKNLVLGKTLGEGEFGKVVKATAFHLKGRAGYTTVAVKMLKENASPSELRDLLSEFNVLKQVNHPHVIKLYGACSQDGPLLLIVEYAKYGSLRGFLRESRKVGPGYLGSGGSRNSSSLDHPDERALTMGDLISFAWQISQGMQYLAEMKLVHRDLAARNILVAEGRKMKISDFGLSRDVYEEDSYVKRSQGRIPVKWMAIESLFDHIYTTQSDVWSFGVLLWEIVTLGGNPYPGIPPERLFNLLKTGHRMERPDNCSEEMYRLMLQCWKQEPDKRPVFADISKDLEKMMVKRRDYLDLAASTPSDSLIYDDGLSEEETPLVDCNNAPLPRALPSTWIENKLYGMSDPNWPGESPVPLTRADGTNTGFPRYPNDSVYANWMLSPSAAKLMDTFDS

[3] = molecular target: VEGFR-2 (Homo sapiens, UniProt P35968); assay: VEGFR-2 kinase inhibition, Caliper screening (fluorescent substrate phosphorylation, electrophoretic separation); conditions: for VEGFR-2 Fold: fold of IC50 relative to sunitinib
Chain of VEGFR-2 (P35968 20-1356, species assumed): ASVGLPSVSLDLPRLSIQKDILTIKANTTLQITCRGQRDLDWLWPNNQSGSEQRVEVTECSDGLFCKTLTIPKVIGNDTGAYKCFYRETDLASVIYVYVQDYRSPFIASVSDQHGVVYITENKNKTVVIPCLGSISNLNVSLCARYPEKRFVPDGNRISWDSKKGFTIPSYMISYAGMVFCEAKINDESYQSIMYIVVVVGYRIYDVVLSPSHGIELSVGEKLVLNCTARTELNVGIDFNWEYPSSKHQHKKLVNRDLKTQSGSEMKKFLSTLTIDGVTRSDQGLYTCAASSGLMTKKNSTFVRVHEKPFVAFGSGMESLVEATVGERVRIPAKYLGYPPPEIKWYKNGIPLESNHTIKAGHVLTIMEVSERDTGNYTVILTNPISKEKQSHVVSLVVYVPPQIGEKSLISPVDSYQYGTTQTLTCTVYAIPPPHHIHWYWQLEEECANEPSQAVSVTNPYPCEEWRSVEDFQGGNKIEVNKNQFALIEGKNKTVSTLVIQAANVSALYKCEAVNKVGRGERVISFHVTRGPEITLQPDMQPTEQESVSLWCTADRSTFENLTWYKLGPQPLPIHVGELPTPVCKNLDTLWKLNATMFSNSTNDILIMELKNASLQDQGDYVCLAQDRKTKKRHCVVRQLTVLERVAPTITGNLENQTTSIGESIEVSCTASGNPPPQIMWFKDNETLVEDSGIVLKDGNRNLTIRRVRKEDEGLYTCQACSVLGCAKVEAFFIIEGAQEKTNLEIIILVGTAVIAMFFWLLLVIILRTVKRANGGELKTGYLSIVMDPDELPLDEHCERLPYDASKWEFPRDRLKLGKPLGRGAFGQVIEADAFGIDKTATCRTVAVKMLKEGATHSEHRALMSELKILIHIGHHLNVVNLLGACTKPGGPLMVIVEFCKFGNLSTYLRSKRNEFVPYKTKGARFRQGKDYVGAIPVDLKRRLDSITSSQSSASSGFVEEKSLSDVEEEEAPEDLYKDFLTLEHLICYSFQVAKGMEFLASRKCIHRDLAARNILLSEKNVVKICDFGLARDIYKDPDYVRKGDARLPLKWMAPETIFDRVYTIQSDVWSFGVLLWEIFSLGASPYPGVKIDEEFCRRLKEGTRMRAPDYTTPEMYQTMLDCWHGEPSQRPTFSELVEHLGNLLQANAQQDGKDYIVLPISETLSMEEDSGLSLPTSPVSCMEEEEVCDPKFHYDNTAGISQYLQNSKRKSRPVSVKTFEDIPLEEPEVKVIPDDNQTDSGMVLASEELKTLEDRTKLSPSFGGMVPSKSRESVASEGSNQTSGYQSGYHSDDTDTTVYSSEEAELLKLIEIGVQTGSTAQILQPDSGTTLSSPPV

[4] = concentration 1.0E−05 (unit not given)
[5] = concentration 1.0E−06 (unit not given)
[6] = concentration 1.0E−07 (unit not given)
[7] = concentration 1.0E−08 (unit not given)
[8] = concentration 1.0E−09 (unit not given)
[9] = concentration 1.0E−10 (unit not given)
[10] = concentration 3.0E−05 (unit not given)
[11] = concentration 3.0E−06 (unit not given)
[12] = concentration 3.0E−07 (unit not given)
[13] = concentration 3.0E−08 (unit not given)
[14] = concentration 3.0E−09 (unit not given)
[15] = concentration 3.0E−10 (unit not given)

Chain of c-Kit (P10721 26-976): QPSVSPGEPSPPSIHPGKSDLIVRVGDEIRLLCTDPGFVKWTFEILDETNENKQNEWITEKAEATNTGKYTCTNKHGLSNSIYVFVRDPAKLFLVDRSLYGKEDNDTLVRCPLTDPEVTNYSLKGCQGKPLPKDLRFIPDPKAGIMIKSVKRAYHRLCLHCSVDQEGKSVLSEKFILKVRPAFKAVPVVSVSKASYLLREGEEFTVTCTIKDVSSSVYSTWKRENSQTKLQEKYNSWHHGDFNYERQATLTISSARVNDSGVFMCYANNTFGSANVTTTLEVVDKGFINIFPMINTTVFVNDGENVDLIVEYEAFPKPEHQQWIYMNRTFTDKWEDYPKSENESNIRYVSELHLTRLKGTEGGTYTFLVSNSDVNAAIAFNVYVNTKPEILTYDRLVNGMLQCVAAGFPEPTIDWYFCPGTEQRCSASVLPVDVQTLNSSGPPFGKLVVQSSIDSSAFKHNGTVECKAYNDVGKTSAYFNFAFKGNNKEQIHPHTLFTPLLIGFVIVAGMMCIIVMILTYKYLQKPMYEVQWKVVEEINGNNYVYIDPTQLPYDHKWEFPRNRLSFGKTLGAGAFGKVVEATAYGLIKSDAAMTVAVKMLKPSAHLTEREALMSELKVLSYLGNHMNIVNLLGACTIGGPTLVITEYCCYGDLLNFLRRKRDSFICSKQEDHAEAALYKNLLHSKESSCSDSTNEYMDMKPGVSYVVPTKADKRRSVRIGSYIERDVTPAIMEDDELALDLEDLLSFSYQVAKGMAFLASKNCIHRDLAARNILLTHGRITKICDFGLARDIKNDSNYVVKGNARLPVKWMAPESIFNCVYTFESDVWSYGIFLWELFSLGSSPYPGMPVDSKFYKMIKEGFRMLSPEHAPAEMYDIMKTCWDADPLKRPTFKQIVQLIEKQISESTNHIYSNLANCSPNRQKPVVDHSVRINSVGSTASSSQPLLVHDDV

COCCOCCOCCOCCNC(=O)c1c(C)[nH]c(/C=C2\C(=O)Nc3ccc(F)cc32)c1C [mPEG4-semaxanib, (Z)-5-((5-fluoro-2-oxoindolin-3-ylidene)methyl)-2,4-dimethyl-1H-pyrrole-3-mPEG4-amide]
IC50 [1]: 170 nM | c-Kit AVG % Activity at Specific Concentration [1, 4]: −1% | c-Kit AVG % Activity at Specific Concentration [1, 5]: 3% | c-Kit AVG % Activity at Specific Concentration [1, 6]: 70% | c-Kit AVG % Activity at Specific Concentration [1, 7]: 97% | c-Kit AVG % Activity at Specific Concentration [1, 8]: 99% | c-Kit AVG % Activity at Specific Concentration [1, 9]: 97% | c-Kit AVG % Activity at Specific Concentration [1, 10]: −1% | c-Kit AVG % Activity at Specific Concentration [1, 11]: −1% | c-Kit AVG % Activity at Specific Concentration [1, 12]: 24% | c-Kit AVG % Activity at Specific Concentration [1, 13]: 94% | c-Kit AVG % Activity at Specific Concentration [1, 14]: 93% | c-Kit AVG % Activity at Specific Concentration [1, 15]: 100% | c-Kit Fold [1]: 2.30 | IC50 [2]: 350 nM | RET AVG % Activity at Specific Concentration [2, 4]: 0% | RET AVG % Activity at Specific Concentration [2, 5]: 22% | RET AVG % Activity at Specific Concentration [2, 6]: 78% | RET AVG % Activity at Specific Concentration [2, 7]: 99% | RET AVG % Activity at Specific Concentration [2, 8]: 89% | RET AVG % Activity at Specific Concentration [2, 9]: 100% | RET AVG % Activity at Specific Concentration [2, 10]: −1% | RET AVG % Activity at Specific Concentration [2, 11]: 5% | RET AVG % Activity at Specific Concentration [2, 12]: 52% | RET AVG % Activity at Specific Concentration [2, 13]: 95% | RET AVG % Activity at Specific Concentration [2, 14]: 100% | RET AVG % Activity at Specific Concentration [2, 15]: 99% | RET Fold [2]: 8.14 | IC50 [3]: 180 nM | VEGFR-2 AVG % Activity at Specific Concentration [3, 4]: −4% | VEGFR-2 AVG % Activity at Specific Concentration [3, 5]: 12% | VEGFR-2 AVG % Activity at Specific Concentration [3, 6]: 56% | VEGFR-2 AVG % Activity at Specific Concentration [3, 7]: 88% | VEGFR-2 AVG % Activity at Specific Concentration [3, 8]: 92% | VEGFR-2 AVG % Activity at Specific Concentration [3, 9]: 86% | VEGFR-2 AVG % Activity at Specific Concentration [3, 10]: −6% | VEGFR-2 AVG % Activity at Specific Concentration [3, 11]: −4% | VEGFR-2 AVG % Activity at Specific Concentration [3, 12]: 35% | VEGFR-2 AVG % Activity at Specific Concentration [3, 13]: 89% | VEGFR-2 AVG % Activity at Specific Concentration [3, 14]: 96% | VEGFR-2 AVG % Activity at Specific Concentration [3, 15]: 97% | VEGFR-2 Fold [3]: 3.67

COCCOCCOCCOCCOCCOCCOCCNC(=O)c1c(C)[nH]c(/C=C2\C(=O)Nc3ccc(F)cc32)c1C [mPEG7-semaxanib, (Z)-5-((5-fluoro-2-oxoindolin-3-ylidene)methyl)-2,4-dimethyl-1H-pyrrole-3-mPEG7-amide]
IC50 [1]: 320 nM | c-Kit AVG % Activity at Specific Concentration [1, 4]: −1% | c-Kit AVG % Activity at Specific Concentration [1, 5]: 11% | c-Kit AVG % Activity at Specific Concentration [1, 6]: 82% | c-Kit AVG % Activity at Specific Concentration [1, 7]: 96% | c-Kit AVG % Activity at Specific Concentration [1, 8]: 97% | c-Kit AVG % Activity at Specific Concentration [1, 9]: 97% | c-Kit AVG % Activity at Specific Concentration [1, 10]: −1% | c-Kit AVG % Activity at Specific Concentration [1, 11]: 1% | c-Kit AVG % Activity at Specific Concentration [1, 12]: 49% | c-Kit AVG % Activity at Specific Concentration [1, 13]: 96% | c-Kit AVG % Activity at Specific Concentration [1, 14]: 98% | c-Kit AVG % Activity at Specific Concentration [1, 15]: 96% | c-Kit Fold [1]: 4.30 | IC50 [2]: 620 nM | RET AVG % Activity at Specific Concentration [2, 4]: 2% | RET AVG % Activity at Specific Concentration [2, 5]: 38% | RET AVG % Activity at Specific Concentration [2, 6]: 85% | RET AVG % Activity at Specific Concentration [2, 7]: 98% | RET AVG % Activity at Specific Concentration [2, 8]: 99% | RET AVG % Activity at Specific Concentration [2, 9]: 98% | RET AVG % Activity at Specific Concentration [2, 10]: 0% | RET AVG % Activity at Specific Concentration [2, 11]: 14% | RET AVG % Activity at Specific Concentration [2, 12]: 68% | RET AVG % Activity at Specific Concentration [2, 13]: 93% | RET AVG % Activity at Specific Concentration [2, 14]: 99% | RET AVG % Activity at Specific Concentration [2, 15]: 98% | RET Fold [2]: 14.42 | IC50 [3]: 310 nM | VEGFR-2 AVG % Activity at Specific Concentration [3, 4]: −3% | VEGFR-2 AVG % Activity at Specific Concentration [3, 5]: 19% | VEGFR-2 AVG % Activity at Specific Concentration [3, 6]: 80% | VEGFR-2 AVG % Activity at Specific Concentration [3, 7]: 95% | VEGFR-2 AVG % Activity at Specific Concentration [3, 8]: 95% | VEGFR-2 AVG % Activity at Specific Concentration [3, 9]: 98% | VEGFR-2 AVG % Activity at Specific Concentration [3, 10]: −6% | VEGFR-2 AVG % Activity at Specific Concentration [3, 11]: 0% | VEGFR-2 AVG % Activity at Specific Concentration [3, 12]: 46% | VEGFR-2 AVG % Activity at Specific Concentration [3, 13]: 90% | VEGFR-2 AVG % Activity at Specific Concentration [3, 14]: 93% | VEGFR-2 AVG % Activity at Specific Concentration [3, 15]: 94% | VEGFR-2 Fold [3]: 6.33

COCCOCCOCCOCCOCCOCCOCCOCCNC(=O)c1c(C)[nH]c(/C=C2\C(=O)Nc3ccc(F)cc32)c1C [mPEG8-semaxanib, (Z)-5-((5-fluoro-2-oxoindolin-3-ylidene)methyl)-2,4-dimethyl-1H-pyrrole-3-mPEG8-amide]
IC50 [1]: 300 nM | c-Kit AVG % Activity at Specific Concentration [1, 4]: −1% | c-Kit AVG % Activity at Specific Concentration [1, 5]: 11% | c-Kit AVG % Activity at Specific Concentration [1, 6]: 75% | c-Kit AVG % Activity at Specific Concentration [1, 7]: 97% | c-Kit AVG % Activity at Specific Concentration [1, 8]: 98% | c-Kit AVG % Activity at Specific Concentration [1, 9]: 94% | c-Kit AVG % Activity at Specific Concentration [1, 10]: −1% | c-Kit AVG % Activity at Specific Concentration [1, 11]: 1% | c-Kit AVG % Activity at Specific Concentration [1, 12]: 49% | c-Kit AVG % Activity at Specific Concentration [1, 13]: 93% | c-Kit AVG % Activity at Specific Concentration [1, 14]: 98% | c-Kit AVG % Activity at Specific Concentration [1, 15]: 94% | c-Kit Fold [1]: 4.10 | IC50 [2]: 990 nM | RET AVG % Activity at Specific Concentration [2, 4]: 5% | RET AVG % Activity at Specific Concentration [2, 5]: 52% | RET AVG % Activity at Specific Concentration [2, 6]: 92% | RET AVG % Activity at Specific Concentration [2, 7]: 100% | RET AVG % Activity at Specific Concentration [2, 8]: 102% | RET AVG % Activity at Specific Concentration [2, 9]: 100% | RET AVG % Activity at Specific Concentration [2, 10]: 0% | RET AVG % Activity at Specific Concentration [2, 11]: 20% | RET AVG % Activity at Specific Concentration [2, 12]: 75% | RET AVG % Activity at Specific Concentration [2, 13]: 94% | RET AVG % Activity at Specific Concentration [2, 14]: 97% | RET AVG % Activity at Specific Concentration [2, 15]: 99% | RET Fold [2]: 23.02 | IC50 [3]: 430 nM | VEGFR-2 AVG % Activity at Specific Concentration [3, 4]: −3% | VEGFR-2 AVG % Activity at Specific Concentration [3, 5]: 24% | VEGFR-2 AVG % Activity at Specific Concentration [3, 6]: 73% | VEGFR-2 AVG % Activity at Specific Concentration [3, 7]: 85% | VEGFR-2 AVG % Activity at Specific Concentration [3, 8]: 86% | VEGFR-2 AVG % Activity at Specific Concentration [3, 9]: 86% | VEGFR-2 AVG % Activity at Specific Concentration [3, 10]: −6% | VEGFR-2 AVG % Activity at Specific Concentration [3, 11]: 2% | VEGFR-2 AVG % Activity at Specific Concentration [3, 12]: 50% | VEGFR-2 AVG % Activity at Specific Concentration [3, 13]: 78% | VEGFR-2 AVG % Activity at Specific Concentration [3, 14]: 82% | VEGFR-2 AVG % Activity at Specific Concentration [3, 15]: 84% | VEGFR-2 Fold [3]: 8.78
